Patent publication US20250319032A1, “PHARMACEUTICAL COMPOSITIONS OF RIBOCICLIB” (Novartis AG, priority 2024, published 2025)
Blank lines part the entries; values can stand above or below the compound they belong to.

Experiments:
[1] = DMP433 (N-nitroso-ribociclib) content in ribociclib base (B10) and ribociclib succinate (B12, drug substance) batches and process experiments, LC-MS/MS or HPLC-HRMS; format: physicochemical; settings: for DMP433 [ppm] LOQ (0.0625 ppm) / DMP433 [ppm], result in brackets (extrapolation, estimate of actual value below LOQ): ribociclib base (LEE011 B10)
From the text: The method of testing for the presence and/or total amount of nitrosamines (such as the presence and/or total amount of N-nitroso-ribociclib in free or salt form) that is used in the methods of the invention may be any method which allows for the detection of nitrosamines in a composition. For example, the method may involve the Griess test described above. In such a method, the nitrosamines may be first denitrosated (e.g., by photolysis) to form a nitrite, which is then detected in the Griess test. Alternatively, the method may include high performance liquid chromatography (HPLC)- and/or gas chromatography (GC)-mass spectroscopy. An example of a method of testing for the presence and amount of nitrosamines (namely N-nitroso-ribociclib) is provided herein as Example 14. […]
2.7. […] Dissolve the substance using vortex and fill to volume with solvent (50% MeOH). • 3. Filter through 0.2 μm PVDF (polyvinylidene difluoride) or PTFE (polytetrafluoroethylene) filter into a HPLC amber vial, discard the first 0.5 ml.
A calibration curve for DMP433 is created, using calibration standard solutions L1-L6, and expressing the relationship between responses (peak areas) and standard concentrations (ng/ml). For L1, the average of 6 injections is used. Linear regression is weighed with 1/amount. […]

[2] = Nitrite content (ion chromatography; LC-FLD with DAN derivatisation; Griess test) in drug substance, intermediates, reagents, solvents, filters, excipients; format: physicochemical; settings: for Nitrite NAT enhanced sample prep. (ppm): ribociclib succinate drug substance batches at release
From the text: The method of testing for the presence and/or total amount of nitrites that is used in the methods of the invention may be any method which allows for the detection and/or quantitation of nitrites in a composition. For example, the method may be the Griess test. The Griess test allows for the detection and analysis of nitrite by the formation of a red-pink colour upon treatment of a nitrite-containing sample with the Griess reagent. The Griess reagent consists of two components in an acidic solution: an aniline derivative and a coupling agent. The most common arrangements use sulfanilamide and N-(1-naphthyl)ethylenediamine. For example 0.2% N-(1-naphthyl)ethylenediamine dihydrochloride and 2% sulfanilamide in 5% phosphoric acid may be used as a Griess reagent. Other aniline derivatives that may be used in a Griess reagent include sulfanilic acid, nitroaniline, and p-aminoacetophenone.
The Griess test involves two subsequent reactions, as shown in the scheme below. When the aniline derivative (e.g., sulfanilamide) is added, the nitrite ion reacts with it in the Griess diazotization reaction to form a diazonium salt, which then reacts with N-(1-naphthyl)ethylenediamine in an azo-coupling reaction, forming a pink-red azo-dye. Using a spectrophotometer, the nitrite concentration can then be quantitatively detected.
Additionally purified water; e.g. Milli Q • 2.
• 10 mM KH2PO4 Weigh accurately about 1.361 g of KH2PO4 into a 1 L volumetric flask, dissolve it in approximately 950 mL of additionally purified water and adjust the pH to 8.0 (with 2.7 M NaOH). Make up to the mark with additionally purified water. • 0.62 M HCl Add a few millilitres (e.g. 20 mL) of additionally purified water to a 200 mL volumetric flask, add 10.280 mL of concentrated HCl, mix and make up to the mark with additionally purified water. • 2.7 M NaOH Weigh accurately about 1.092 g of NaOH pellets into a 10 mL volumetric flask and dissolve it in additionally purified water. Cool to room temperature and make up to the mark with the same solvent. • Reagent DAN Weigh accurately about 5 mg of 2,3-diaminophthalene into a 100 mL volumetric flask and dissolve it with the solvent (methanol/water 1:1 (v/v)). Dilute up to the mark and ensure visual full dissolution. Use an amberglass flask. • Mobile phase A Mix 950 mL of 10 mM KH2PO4 solution (pH=8) and add 50 mL methanol. • Mobile phase B Methanol. • Solvent Methanol/water 1:1 (v/v), e.g. mix 2000 mL of additionally purified water and 2000 mL methanol.
• Instrument: HPLC with FLR detector; e.g. Waters Arc or equivalent • Column: C18 50×4.6 mm, 2.5 μm, e.g. XBridge C18 2.5 μm, 4.650 mm or equivalent
• Notes It is recommended to wear additional protective equipment (face mask and gloves) during weighing. • It is recommended to wash the column with 50% methanol after the analysis (example of preparation: mix 500 mL methanol and 500 m1 of additionally purified water). • It is recommended to rinse the injector with solvent after each injection. • All glassware and tools should be rinsed with additionally purified water before use. It is not recommended to leave the solutions open for a longer time before measurement. • Blank solution 1 Transfer 1 mL of solvent into a HPLC vial and perform derivatization as described below. • Blank solution 2 Transfer 10 mL of solvent into a single use glass vial and mix it on a magnetic stirrer for 30 min. Transfer the solution into a 5 mL centrifuge tube and centrifuge for 10 min at 12000 rpm. […] Fill up to the mark with solvent and mix. • (Cnitrite≈0.0005 mg/mL) • Comparison solution Transfer 10 mL of nitrite stock solution into a 500 mL volumetric flask. • (2 parallels) Fill up to the mark with solvent and mix. • Transfer 1 mL solution into a HPLC vial and perform the derivatization as described below. • (Cnitrite≈100 ppb) • Sample solution Accurately weigh about 1000 mg of the sample into a glass vial for single use and add 10 mL of solvent.

SMILES: CN(C)C(=O)c1cc2cnc(Nc3ccc(N4CCNCC4)cn3)nc2n1C1CCCC1.O=C(O)CCC(=O)O [Batch B699003AA]
DMP433 content (corrected value) at release ([1]; drug substance DS06 used for tablet core experiments and binary mixtures): 0.655 ppm

SMILES: CN(C)C(=O)c1cc2cnc(Nc3ccc(N4CCNCC4)cn3)nc2n1C1CCCC1.O=C(O)CCC(=O)O [DS (B699003AA)]
Nitrite content ([2]; component (DS or MgST) used in binary mixtures): DS 0.1 ppm

SMILES: CC(C)O [IPA]
Nitrite in IPA ([2]; IPA used in resin loading experiments): 1.6 ppb

SMILES: CN(C)C(=O)c1cc2cnc(Nc3ccc(N4CCNCC4)cn3)nc2n1C1CCCC1.O=C(O)CCC(=O)O [LEE011-haenepa1-012]
DMP433 in LEE011-B12 ([1]; washing of isolated ribociclib succinate, laboratory scale (conditions per experiment)): 746 ppb

SMILES: CN(C)C(=O)c1cc2cnc(Nc3ccc(N4CCNCC4)cn3)nc2n1C1CCCC1.O=C(O)CCC(=O)O [LEE011-haenepa1-013]
DMP433 in LEE011-B12 ([1]; re-slurry of LEE011-B12 in iPrOH at 10° C.): 64 ppm

SMILES: CN(C)C(=O)c1cc2cnc(Nc3ccc(N4CCNCC4)cn3)nc2n1C1CCCC1.O=C(O)CCC(=O)O [RIBOCICLIB SUCCINATE 833268A144]
Nitrite NAT enhanced sample prep. (ppm) ([2]; manufacturer Raybow - DS04): <0.1 ppm
Nitrite NAT enhanced sample prep. (ppm) ([2]; manufacturer Raybow - DS05): <0.1 ppm

SMILES: CN(C)C(=O)c1cc2cnc(Nc3ccc(N4CCNCC4)cn3)nc2n1C1CCCC1.O=C(O)CCC(=O)O [RIBOCICLIB SUCCINATE 833268A193]
Nitrite NAT enhanced sample prep. (ppm) ([2]; manufacturer Raybow - DS04): 0.1 ppm
Nitrite NAT enhanced sample prep. (ppm) ([2]; manufacturer Raybow - DS05): 0.1 ppm

SMILES: CN(C)C(=O)c1cc2cnc(Nc3ccc(N4CCNCC4)cn3)nc2n1C1CCCC1.O=C(O)CCC(=O)O [RIBOCICLIB SUCCINATE 833268A196]
Nitrite NAT enhanced sample prep. (ppm) ([2]; manufacturer Raybow - DS04): 1.1 ppm
Nitrite NAT enhanced sample prep. (ppm) ([2]; manufacturer Raybow - DS05): 0.1 ppm

SMILES: CN(C)C(=O)c1cc2cnc(Nc3ccc(N4CCNCC4)cn3)nc2n1C1CCCC1.O=C(O)CCC(=O)O [RIBOCICLIB SUCCINATE 833268A198]
Nitrite NAT enhanced sample prep. (ppm) ([2]; manufacturer Raybow - DS04): 0.1 ppm
Nitrite NAT enhanced sample prep. (ppm) ([2]; manufacturer Raybow - DS05): 0.1 ppm

Next, values leading:

DMP433 [ppm] LOQ (0.0625 ppm) [1]: LOQ
DMP433 [ppm], result in brackets (extrapolation, estimate of actual value below LOQ) [1]: 0.005 ppm
SMILES: CN(C)C(=O)c1cc2cnc(Nc3ccc(N4CCNCC4)cn3)nc2n1C1CCCC1 [Batch B704194]

DMP433 [ppm] LOQ (0.0625 ppm) [1]: LOQ
DMP433 [ppm], result in brackets (extrapolation, estimate of actual value below LOQ) [1]: 0.019 ppm
SMILES: CN(C)C(=O)c1cc2cnc(Nc3ccc(N4CCNCC4)cn3)nc2n1C1CCCC1 [Batch B704196]

DMP433 [ppm] LOQ (0.0625 ppm) [1]: LOQ
DMP433 [ppm], result in brackets (extrapolation, estimate of actual value below LOQ) [1]: 0.037 ppm
SMILES: CN(C)C(=O)c1cc2cnc(Nc3ccc(N4CCNCC4)cn3)nc2n1C1CCCC1 [Batch B705465]

DMP433 [ppm] LOQ (0.0625 ppm) [1]: LOQ
DMP433 [ppm], result in brackets (extrapolation, estimate of actual value below LOQ) [1]: 0.043 ppm
SMILES: CN(C)C(=O)c1cc2cnc(Nc3ccc(N4CCNCC4)cn3)nc2n1C1CCCC1 [Batch B0705466]

DMP433 [ppm] LOQ (0.0625 ppm) [1]: LOQ
DMP433 [ppm], result in brackets (extrapolation, estimate of actual value below LOQ) [1]: 0.035 ppm
SMILES: CN(C)C(=O)c1cc2cnc(Nc3ccc(N4CCNCC4)cn3)nc2n1C1CCCC1 [Batch B0705467]

DMP433 [ppm] LOQ (0.0625 ppm) [1]: LOQ
DMP433 [ppm], result in brackets (extrapolation, estimate of actual value below LOQ) [1]: 0.030 ppm
SMILES: CN(C)C(=O)c1cc2cnc(Nc3ccc(N4CCNCC4)cn3)nc2n1C1CCCC1.O=C(O)CCC(=O)O [Batch B0705468]

N-nitroso-ribociclib ([1]; starting material used for technical batch NV1900): 0.21 ppm
SMILES: CN(C)C(=O)c1cc2cnc(Nc3ccc(N4CCNCC4)cn3)nc2n1C1CCCC1.O=C(O)CCC(=O)O [Batch B728969]
